Data taken from patent US9532990B2 (Zhejiang DTRM Biopharma Co. Ltd., priority 2014, dated 2017).

Experiment: Pharmacokinetic study in male SD rats
Format: in vivo
Settings: rat, plasma
Protocol: A pharmacokinetic study in male SD rats: Male SD rats for pharmacokinetic study within 24 hours were divided into two groups: intravenous administration and oral administration. Each group has three animals. For group of intravenous administration, blood samples were collected at pre-dose, 0.0833, 0.167, 0.5, 1, 2, 4, 8, 24 h post-dose; for group of oral administration, blood samples were collected at pre-dose, 0.167, 0.5, 1, 2, 4, 8, 24 h post-dose. After blood collection, HPLC-MS/MS was applied to determine plasma concentrations of the compound.

AUC(0-inf) (IV, 2 mg/kg, mean): 1740 ng·h/mL | AUC(0-t) (IV, 2 mg/kg, mean): 1740 ng·h/mL | C0 (IV, 2 mg/kg, mean): 1390 ng/mL | clearance (IV, 2 mg/kg, mean): 20.2 mL/min/kg | half-life (IV, 2 mg/kg, mean): 0.787 h | Vd (IV, 2 mg/kg, mean, read-out: Vdss): 1.61 L/kg | bioavailability (PO, 10 mg/kg): 37.1% | AUC(0-inf) (PO, 10 mg/kg, mean): 3260 ng·h/mL | AUC(0-t) (PO, 10 mg/kg, mean): 3230 ng·h/mL | Cmax (PO, 10 mg/kg, mean): 641 ng/mL | Tmax (PO, 10 mg/kg, mean): 1.33 h | half-life (PO, 10 mg/kg, mean): 1.71 h
SMILES: C=CC(=O)N1CC[C@@H](n2nc(-c3ccc(Oc4c(F)c(F)cc(F)c4F)cc3F)c3c(N)ncnc32)C1 [Compound 45, 1-((R)-3-(4-amino-3-(2-fluoro-4-(2,3,5,6-tetrafluorophenoxy)phenyl)-1H-pyrazolo[3,4-d]pyrimidin-1-yl)pyrrolidin-1-yl)prop-2-en-1-one]
